Data published in ChEMBL document CHEMBL4725429, “Discovery and Evaluation of Pyrazolo[3,4-d]pyridazinone as a Potent and Orally Active Irreversible BTK Inhibitor” (ACS Med Chem Lett, 2020).
One block for each compound: values may come before it.

Columns and labels:
[1] = biological target: Tyrosine-protein kinase BTK (Homo sapiens, UniProt Q06187); assay: Inhibition of recombinant human His-tagged full length BTK expressed in baculovirus expression system using TK1 as substrate incubated for 60 mins by HTRF assay
Tyrosine-protein kinase BTK, sequence (Q06187 whole entry): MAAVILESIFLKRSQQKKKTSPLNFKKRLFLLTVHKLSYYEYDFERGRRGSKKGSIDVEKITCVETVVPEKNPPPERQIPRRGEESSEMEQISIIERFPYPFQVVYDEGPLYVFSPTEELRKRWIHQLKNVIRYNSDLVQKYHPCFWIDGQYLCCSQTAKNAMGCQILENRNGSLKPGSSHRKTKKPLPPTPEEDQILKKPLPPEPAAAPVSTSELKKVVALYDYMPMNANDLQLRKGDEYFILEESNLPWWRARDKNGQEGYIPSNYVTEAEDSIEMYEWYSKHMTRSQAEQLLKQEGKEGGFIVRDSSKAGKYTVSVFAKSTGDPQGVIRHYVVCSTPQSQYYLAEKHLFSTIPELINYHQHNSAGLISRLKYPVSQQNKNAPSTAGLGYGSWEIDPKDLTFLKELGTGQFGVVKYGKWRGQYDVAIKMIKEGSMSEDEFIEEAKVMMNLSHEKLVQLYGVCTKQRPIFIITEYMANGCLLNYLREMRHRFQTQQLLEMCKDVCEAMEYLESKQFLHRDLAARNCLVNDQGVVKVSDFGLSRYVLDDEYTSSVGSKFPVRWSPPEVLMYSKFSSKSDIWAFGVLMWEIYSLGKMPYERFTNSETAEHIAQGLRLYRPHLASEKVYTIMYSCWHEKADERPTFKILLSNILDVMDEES

[2] = AUC in BALB/c mouse 2 mg/kg, po measured upto 24 hrs by LC-MS/MS analysis; assay type: ADME, organism-based; set-up: route oral, dose 2 mg/kg, time <=24; settings: in vivo
[3] = Cmax in BALB/c mouse 2 mg/kg, po measured upto 24 hrs by LC-MS/MS analysis; assay type: ADME, organism-based; set-up: route oral, dose 2 mg/kg, time <=24; settings: in vivo
[4] = Clearance in Sprague-Dawley rat at 2 mg/kg, iv measured upto 24 hrs by LC-MS/MS analysis; settings: in vivo
Cytochrome P450 1A2 = biological target: T1, Cytochrome P450 1A2 (Homo sapiens, UniProt P05177); assay: Inhibition of human liver microsome CYP1A2 using phenacetin as substrate preincubated for 10 mins followed by substrate and NADPH addition and measured after 10 mins by LC-MS/MS analysis
T1 sequence (P05177 whole entry): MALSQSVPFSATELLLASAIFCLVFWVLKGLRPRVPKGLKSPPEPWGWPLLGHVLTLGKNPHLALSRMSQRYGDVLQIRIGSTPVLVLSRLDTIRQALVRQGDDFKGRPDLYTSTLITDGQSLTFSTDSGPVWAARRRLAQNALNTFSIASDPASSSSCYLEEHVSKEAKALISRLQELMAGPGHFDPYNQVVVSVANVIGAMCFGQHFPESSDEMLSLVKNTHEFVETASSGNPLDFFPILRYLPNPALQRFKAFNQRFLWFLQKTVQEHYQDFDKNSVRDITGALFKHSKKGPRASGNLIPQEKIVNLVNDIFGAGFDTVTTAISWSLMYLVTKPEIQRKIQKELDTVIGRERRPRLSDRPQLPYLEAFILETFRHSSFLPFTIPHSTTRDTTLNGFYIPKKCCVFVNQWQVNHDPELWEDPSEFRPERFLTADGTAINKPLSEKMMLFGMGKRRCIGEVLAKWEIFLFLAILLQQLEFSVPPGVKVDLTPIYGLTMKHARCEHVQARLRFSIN

[5] = Oral bioavailability in Sprague-Dawley rat at 10 mg/kg measured upto 24 hrs by LC-MS/MS analysis; assay type: ADME, organism-based; settings: in vivo
[6] = Volume of distribution at steady state in BALB/c mouse at 1 mg/kg, iv measured upto 24 hrs by LC-MS/MS analysis; assay type: ADME, organism-based; settings: in vivo, read-out: Vdss
[7] = AUC (0 to last) in Sprague-Dawley rat at 10 mg/kg, po measured upto 24 hrs by LC-MS/MS analysis; assay type: ADME, organism-based; set-up: route oral, dose 10 mg/kg, time <=24; settings: in vivo
Cytochrome P450 2D6 = Cytochrome P450 2D6 (Homo sapiens, UniProt P10635); assay: Inhibition of human liver microsome CYP2D6 using dextromethorphan as substrate preincubated for 10 mins followed by substrate and NADPH addition and measured after 10 mins by LC-MS/MS analysis
Cytochrome P450 2D6, sequence (P10635 whole entry): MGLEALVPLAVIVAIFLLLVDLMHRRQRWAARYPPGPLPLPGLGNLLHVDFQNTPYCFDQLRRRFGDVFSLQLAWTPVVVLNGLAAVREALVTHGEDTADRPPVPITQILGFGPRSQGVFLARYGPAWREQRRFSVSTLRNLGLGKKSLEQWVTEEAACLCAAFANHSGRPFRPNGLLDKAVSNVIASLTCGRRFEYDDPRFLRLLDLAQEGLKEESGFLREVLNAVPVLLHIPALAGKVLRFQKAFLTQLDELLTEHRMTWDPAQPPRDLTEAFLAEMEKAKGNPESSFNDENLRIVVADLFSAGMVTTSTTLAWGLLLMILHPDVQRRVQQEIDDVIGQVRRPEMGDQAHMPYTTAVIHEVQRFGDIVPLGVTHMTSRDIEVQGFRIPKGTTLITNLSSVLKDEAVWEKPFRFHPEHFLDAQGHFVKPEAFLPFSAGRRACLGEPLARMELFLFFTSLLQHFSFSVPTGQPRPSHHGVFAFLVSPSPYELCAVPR

[8] = Protein binding in mouse plasma at 2 uM incubated for 4 hrs by LC-MS/MS analysis; assay type: ADME, cell-free; settings: read-out: PPB (converted)
Cytochrome P450 2C9 = Cytochrome P450 2C9 (Homo sapiens, UniProt P11712); assay: Inhibition of human liver microsome CYP2C9 using diclofenac as substrate preincubated for 10 mins followed by substrate and NADPH addition and measured after 10 mins by LC-MS/MS analysis
Cytochrome P450 2C9, sequence (P11712 whole entry): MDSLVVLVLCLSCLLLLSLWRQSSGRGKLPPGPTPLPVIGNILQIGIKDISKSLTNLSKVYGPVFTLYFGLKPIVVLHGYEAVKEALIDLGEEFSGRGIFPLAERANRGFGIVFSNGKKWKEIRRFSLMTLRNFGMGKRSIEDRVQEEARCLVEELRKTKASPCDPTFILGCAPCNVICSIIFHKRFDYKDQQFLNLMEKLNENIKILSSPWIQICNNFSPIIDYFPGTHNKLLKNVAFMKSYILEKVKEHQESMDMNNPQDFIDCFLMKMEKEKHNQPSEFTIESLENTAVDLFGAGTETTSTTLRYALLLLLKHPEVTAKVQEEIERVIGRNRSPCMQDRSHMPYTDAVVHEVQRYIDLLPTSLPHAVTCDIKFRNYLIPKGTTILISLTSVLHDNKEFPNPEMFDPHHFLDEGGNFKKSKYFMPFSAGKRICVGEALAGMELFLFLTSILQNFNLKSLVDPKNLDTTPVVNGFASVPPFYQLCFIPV

Cytochrome P450 2C19 = Cytochrome P450 2C19 (Homo sapiens, UniProt P33261); assay: Inhibition of human liver microsome CYP2C19 using S-mephenytoin as substrate preincubated for 10 mins followed by substrate and NADPH addition and measured after 10 mins by LC-MS/MS analysis
Cytochrome P450 2C19, sequence (P33261 whole entry): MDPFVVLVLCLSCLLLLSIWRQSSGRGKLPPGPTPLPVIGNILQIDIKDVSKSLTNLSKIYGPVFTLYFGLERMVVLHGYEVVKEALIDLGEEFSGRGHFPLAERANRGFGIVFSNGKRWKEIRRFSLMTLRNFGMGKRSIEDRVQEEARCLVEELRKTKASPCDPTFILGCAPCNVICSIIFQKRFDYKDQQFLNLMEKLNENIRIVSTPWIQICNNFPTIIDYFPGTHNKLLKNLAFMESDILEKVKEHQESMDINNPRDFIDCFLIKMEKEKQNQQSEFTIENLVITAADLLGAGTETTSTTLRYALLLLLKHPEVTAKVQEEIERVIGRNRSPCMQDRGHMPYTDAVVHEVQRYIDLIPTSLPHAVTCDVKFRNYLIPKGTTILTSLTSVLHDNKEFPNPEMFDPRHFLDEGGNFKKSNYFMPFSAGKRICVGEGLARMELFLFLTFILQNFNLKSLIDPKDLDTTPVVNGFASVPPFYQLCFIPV

[9] = Clearance in BALB/c mouse at 1 mg/kg, iv measured upto 24 hrs by LC-MS/MS analysis; settings: in vivo
[10] = AUC (0 to last) in BALB/c mouse at 1 mg/kg, iv measured upto 24 hrs by LC-MS/MS analysis; assay type: ADME, organism-based; set-up: route intravenous, dose 1 mg/kg, time <=24; settings: in vivo
[11] = Protein binding in human plasma at 2 uM incubated for 4 hrs by LC-MS/MS analysis; assay type: ADME, cell-free; settings: read-out: PPB (converted)
Mus musculus = assay: Antiarthritic activity in po dosed collagen-induced arthritis mouse model assessed as clinical score administered for 14 days and measured for 21 days after dosing; assay type: functional, organism-based; settings: dose mg/kg 3-10, time 14.0 day
[12] = Toxicity in mouse assessed as body weight loss at 3 and 10 mg/kg, po administered for 14 days and observed for 21 days; assay type: organism-based; settings: in vivo, 336 h, dose 3-10 mg/kg, time 14 day
[13] = Half life in BALB/c mouse at 1 mg/kg, iv measured upto 24 hrs by LC-MS/MS analysis; assay type: ADME, organism-based; settings: in vivo
[14] = Half life in Sprague-Dawley rat at 2 mg/kg, iv measured upto 24 hrs by LC-MS/MS analysis; assay type: ADME, organism-based; settings: in vivo
[15] = Cmax in Sprague-Dawley rat at 2 mg/kg, iv measured upto 24 hrs by LC-MS/MS analysis; assay type: ADME, organism-based; set-up: route intravenous, time <=24; settings: in vivo
[16] = AUC (0 to last) in Sprague-Dawley rat at 2 mg/kg, iv measured upto 24 hrs by LC-MS/MS analysis; assay type: ADME, organism-based; set-up: route intravenous, dose 2 mg/kg, time <=24; settings: in vivo
[17] = Protein binding in rat plasma at 2 uM incubated for 4 hrs by LC-MS/MS analysis; assay type: ADME, cell-free; settings: read-out: PPB (converted)
[18] = Toxicity in mouse assessed as drug tolerance at 3 and 10 mg/kg, po administered for 14 days and observed for 21 days; assay type: organism-based; settings: in vivo, 336 h, dose 3-10 mg/kg, time 14 day
Cytochrome P450 3A4 = Cytochrome P450 3A4 (Homo sapiens, UniProt P08684); assay: Inhibition of human liver microsome CYP3A4 using midazolam as substrate preincubated for 10 mins followed by substrate and NADPH addition and measured after 10 mins by LC-MS/MS analysis
Cytochrome P450 3A4, sequence (P08684 whole entry): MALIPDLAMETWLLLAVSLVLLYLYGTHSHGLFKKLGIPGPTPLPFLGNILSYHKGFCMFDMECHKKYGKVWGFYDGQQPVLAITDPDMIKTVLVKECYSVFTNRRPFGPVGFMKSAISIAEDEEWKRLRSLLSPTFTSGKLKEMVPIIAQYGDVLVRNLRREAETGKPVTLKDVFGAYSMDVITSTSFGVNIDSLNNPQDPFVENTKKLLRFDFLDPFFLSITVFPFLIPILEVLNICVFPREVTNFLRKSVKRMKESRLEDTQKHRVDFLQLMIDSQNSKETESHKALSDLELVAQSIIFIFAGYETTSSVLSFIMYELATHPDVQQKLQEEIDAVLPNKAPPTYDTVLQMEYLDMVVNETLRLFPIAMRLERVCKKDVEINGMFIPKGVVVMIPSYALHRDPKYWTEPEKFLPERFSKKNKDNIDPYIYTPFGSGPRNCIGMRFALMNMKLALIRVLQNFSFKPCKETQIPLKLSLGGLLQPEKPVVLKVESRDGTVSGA

[19] = Volume of distribution at steady state in Sprague-Dawley rat at 2 mg/kg, iv measured upto 24 hrs by LC-MS/MS analysis; assay type: ADME, organism-based; settings: in vivo, read-out: Vdss
[20] = Oral bioavailability in BALB/c mouse at 2 mg/kg measured upto 24 hrs by LC-MS/MS analysis; assay type: ADME, organism-based; settings: in vivo

Structure (SMILES): CN(C)C/C=C/C(=O)N1CCC[C@@H](n2nc(-c3ccc(Oc4ccccc4)cc3)c3c(N)n[nH]c(=O)c32)C1
IC50 [1]: 2.6 nM

Structure (SMILES): C=CC(=O)N1CCC[C@@H](n2nc(-c3ccc(Oc4ccccc4)cc3)c3c(N)nn(CC(F)(F)F)c(=O)c32)C1
IC50 [1]: > 1000 nM

Structure (SMILES): C=CC(=O)N1CCC[C@@H](n2nc(-c3ccc(Oc4ccccc4)cc3)c3c(N)nn(CC)c(=O)c32)C1
IC50 [1]: > 1000 nM

Structure (SMILES): C=CC(=O)N[C@H]1CC[C@@H](n2nc(-c3ccc(Oc4ccccc4)cc3)c3c(N)n[nH]c(=O)c32)CC1
AUC at 24 h [2]: 161 ng·h/mL
Cmax [3]: 290 nM
IC50 [1]: 1.6 nM

Structure (SMILES): C=CC(=O)N1CCC[C@@H](n2nc(-c3ccc(Oc4ccccc4)cc3)c3c(N)nn(C)c(=O)c32)C1
IC50 [1]: 160 nM

Structure (SMILES): C=CC(=O)N1CCC[C@@H](n2nc(-c3ccc(Oc4ccccc4)cc3)c3c(N)n[nH]c(=O)c32)C1
clearance [4]: 54.6 mL/min/kg
AUC at 24 h [2]: 128 ng·h/mL
IC50 (Cytochrome P450 1A2): > 100000 nM
bioavailability [5]: 23.7%
Vd [6]: 0.82 L/kg
AUC(0-t) at 24 h [7]: 642 ng·h/mL
IC50 (Cytochrome P450 2D6): > 100000 nM
fraction unbound at 4 h, 2 µM [8]: 0.047
Cmax [3]: 252 nM
IC50 (Cytochrome P450 2C9): 39600 nM
IC50 (Cytochrome P450 2C19): 43900 nM
clearance [9]: 31.3 mL/min/kg
AUC(0-t) at 24 h [10]: 576 ng·h/mL
fraction unbound at 4 h, 2 µM [11]: 0.025
Activity (Mus musculus): Dose-dependent effect
Activity [12]: Non-Toxic
half-life [13]: 25.2 min
half-life ([14]; Sprague-Dawley): 19.2 min
Cmax ([15]; Sprague-Dawley, read-out: Cmax): 466 ng/mL
AUC(0-t) at 24 h ([16]; Sprague-Dawley): 604 ng·h/mL
fraction unbound at 4 h, 2 µM [17]: 0.003
Activity [18]: Non-Toxic
IC50 (Cytochrome P450 3A4): 37300 nM
IC50 [1]: 2.1 nM
Vd [19]: 1.55 L/kg
bioavailability [20]: 11.2%

Structure (SMILES): Nc1n[nH]c(=O)c2c1c(-c1ccc(Oc3ccccc3)cc1)nn2[C@@H]1CCCN(C(=O)/C=C/CN2CCOCC2)C1
IC50 [1]: 13 nM

Structure (SMILES): C=CC(=O)N1CCCC(n2nc(-c3ccc(Oc4ccccc4)cc3)c3cc4c(N)ncnc4cc32)C1 (stereo not drawn)
IC50 [1]: 1240 nM

Structure (SMILES): C=CC(=O)N1CCC[C@@H](Nc2ncnc3[nH]c4ccc(Oc5ccccc5)cc4c(=O)c23)C1
IC50 [1]: > 10000 nM

Structure (SMILES): C=CC(=O)N1CC[C@@H](n2nc(-c3ccc(Oc4ccccc4)cc3)c3c(N)n[nH]c(=O)c32)C1
AUC at 24 h [2]: 68 ng·h/mL
Cmax [3]: 137 nM
IC50 [1]: 1.4 nM

Structure (SMILES): N#C/C(=C\C1CC1)C(=O)N1CCC[C@@H](n2nc(-c3ccc(Oc4ccccc4)cc3)c3c(N)n[nH]c(=O)c32)C1
IC50 [1]: 22 nM

Structure (SMILES): C=CC(=O)N1CC2(CC(n3nc(-c4ccc(Oc5ccccc5)cc4)c4c(N)n[nH]c(=O)c43)C2)C1
IC50 [1]: 46 nM

Structure (SMILES): C=CC(=O)N1CCC[C@@H](n2nc(-c3ccc(Oc4ccccc4)cc3)c3c(N)noc(=O)c32)C1
IC50 [1]: > 1000 nM

Structure (SMILES): C=CC(=O)N1CCC[C@@H](n2nc(-c3ccc(Oc4ccccc4)cc3)c3c(N)ncnc32)C1 [IBRUTINIB]
AUC at 24 h [2]: 21.4 ng·h/mL
bioavailability [5]: 10.3%
AUC(0-t) at 24 h [7]: 318 ng·h/mL
fraction unbound at 4 h, 2 µM [8]: 0.038
Cmax [3]: 55.3 nM
AUC(0-t) at 24 h [10]: 628 ng·h/mL
fraction unbound at 4 h, 2 µM [11]: 0.031
half-life [13]: 20.4 min
t1/2 ([14]; 2 mg/kg, 24 h): 19.2 min
Cmax ([15]; 24 h): 150 ng/mL
AUClast ([16]; 24 h): 643 ng·h/mL
fraction unbound at 4 h, 2 µM [17]: 0.022
bioavailability [20]: 1.8%

Further lines, results first:

IC50 [1]: 6.7 nM
Structure (SMILES): C=CC(=O)N1CCCCC(n2nc(-c3ccc(Oc4ccccc4)cc3)c3c(N)n[nH]c(=O)c32)C1 (stereo not drawn)

IC50 [1]: 9.8 nM
Structure (SMILES): C=CC(=O)N1CC(n2nc(-c3ccc(Oc4ccccc4)cc3)c3c(N)n[nH]c(=O)c32)C1

IC50 [1]: 921 nM
Structure (SMILES): C=CC(=O)N1CCC[C@@H](Nc2ncnc(N)c2C(=O)c2ccc(Oc3ccccc3)cc2)C1

IC50 [1]: 12 nM
Structure (SMILES): CC#CC(=O)N1CCC[C@@H](n2nc(-c3ccc(Oc4ccccc4)cc3)c3c(N)n[nH]c(=O)c32)C1

IC50 [1]: 4660 nM
Structure (SMILES): C=CC(=O)N1CCCC(n2nc(-c3ccc(Oc4ccccc4)cc3)c3cc4c(N)noc4cc32)C1 (stereo not drawn)

IC50 [1]: 35 nM
Structure (SMILES): CN(C)C/C=C/C(=O)N(C)CCn1nc(-c2ccc(Oc3ccccc3)cc2)c2c(N)n[nH]c(=O)c21

IC50 [1]: 10 nM
Structure (SMILES): C=CC(=O)NC1CCC[C@@H](n2nc(-c3ccc(Oc4ccccc4)cc3)c3c(N)n[nH]c(=O)c32)C1 (stereo partly drawn)

IC50 [1]: > 10000 nM
Structure (SMILES): C=CC(=O)N1CCC[C@@H](Nc2ncnc3[nH]c(=O)c(-c4ccc(Oc5ccccc5)cc4)cc23)C1

IC50 [1]: 4.2 nM
Structure (SMILES): C=CS(=O)(=O)N1CCC[C@@H](n2nc(-c3ccc(Oc4ccccc4)cc3)c3c(N)n[nH]c(=O)c32)C1

AUC at 24 h [2]: 49.5 ng·h/mL
Cmax [3]: 123 nM
IC50 [1]: 1.2 nM
Structure (SMILES): C=CC(=O)N(C)CCn1nc(-c2ccc(Oc3ccccc3)cc2)c2c(N)n[nH]c(=O)c21

IC50 [1]: 1670 nM
Structure (SMILES): C=CC(=O)N1CCC[C@@H](Nc2ncnc(N)c2-n2ncc3cc(Oc4ccccc4)ccc32)C1
